Assay results published in patent publication US9156827B2, “Anticancer agent” (THE UNIVERSITY OF TOKYO, priority 2010, dated 2015).
Counter-ions that a name gives are not always drawn.

Columns and labels:
[1] = target: pim-1 kinase (Homo sapiens, UniProt P11309); experiment: Measurement of pim-1 kinase inhibitory activity (fluorescent substrate peptide, capillary electrophoresis); assay type: biochemical; details: 0.1 μM of each compound, 30 μM ATP, 1.5 μM substrate peptide, room temperature 2 hours; Table 1
Experimental: Measurement of Pim-1 Kinase Inhibitory Activity
The result of the reaction was determined by quantifying the substrate and the phosphorylated reaction product separated by capillary electrophoresis based on difference in charges of the substances (EZ Reader II, Caliper Life Sciences, was used).

[2] = system: human acute myeloid leukemia MV4.11 cells; experiment: Cell proliferation-suppressing activity, fluorescence method (Alamar Blue assay); assay type: cell-based; details: 48 h, compound 1 μM, Alamar Blue assay two days after inoculation, Table 5
Experimental: Measurement of Cell Proliferation-Suppressing Activity (Fluorescence Method)
Each compound was added to a 96-well microtiter plate at a final concentration of 1 μM, then human acute myeloid leukemia MV4.11 cells (10^4 cells) were inoculated, and the Alamar Blue assay was performed two days after the inoculation (measurement of fluorescence: Ex. 535 nm, Em. 590 nm) to measure cell proliferation-suppressing activity.

Chain of pim-1 kinase (P11309 whole entry): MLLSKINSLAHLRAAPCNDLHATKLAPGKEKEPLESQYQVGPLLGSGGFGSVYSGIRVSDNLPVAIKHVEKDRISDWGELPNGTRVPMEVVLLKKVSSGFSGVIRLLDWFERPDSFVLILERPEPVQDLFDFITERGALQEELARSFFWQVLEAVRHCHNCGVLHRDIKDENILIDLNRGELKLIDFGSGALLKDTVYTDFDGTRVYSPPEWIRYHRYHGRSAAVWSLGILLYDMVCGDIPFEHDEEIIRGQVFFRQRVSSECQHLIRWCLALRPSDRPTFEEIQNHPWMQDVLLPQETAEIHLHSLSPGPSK

inhibition at 0.1 µM [1] | Compound | inhibition at 1 µM [2]
94% | Cc1ccc(S(=O)(=O)n2cc(/C=C3\Oc4c(ccc(O)c4CN4CCNCC4)C3=O)c3ccccc32)cc1 [Compound A33, (Z)-6-Hydroxy-7-(piperazin-1-ylmethyl)-2-[(1-tosyl-1H-indol-3-yl)methylene]benzofuran-3(2H)-one dihydrochloride] | 32%
99% | O=C1/C(=C/c2cn(S(=O)(=O)c3ccc(Cl)cc3Cl)c3ccccc23)Oc2c1ccc(O)c2CN1CCNCC1 [Compound A39, (Z)-2-{[1-(2,4-Dichlorophenylsulfonyl)-1H-indol-3-yl]methylene}-6-hydroxy-7-(piperazin-1-ylmethyl)benzofuran-3(2H)-one dihydrochloride] | 51%
99% | O=C1/C(=C/c2cn(S(=O)(=O)c3ccccc3Cl)c3ccccc23)Oc2c1ccc(O)c2CN1CCNCC1 [Compound A36, (Z)-2-{[1-(2-Chlorophenylsulfonyl)-1H-indol-3-yl]methylene}-6-hydroxy-7-(piperazin-1-ylmethyl)benzofuran-3(2H)-one dihydrochloride] | 39%
95% | Cc1ccc2[nH]cc(/C=C3\Oc4c(ccc(O)c4CN4CCNCC4)C3=O)c2c1 [Compound A18, (Z)-6-Hydroxy-2-[(5-methyl-1H-indol-3-yl)methylene]-7-(piperazin-1-ylmethyl)benzofuran-3(2H)-one dihydrochloride] | 71%
83% | O=C1CN(Cc2c(O)ccc3c2O/C(=C\c2c[nH]c4ncccc24)C3=O)CCN1 [Compound A45, (Z)-4-({2-[(1H-Pyrrolo[2,3-b]pyridin-3-yl)methylene]-6-hydroxy-3-oxo-2,3-dihydrobenzofuran-7-yl}methyl)piperazin-2-one] | 15%
